Measured values as given in patent US12565468B2, “Processes and intermediates for the preparations of Carboprost and Carboprost Tromethamine, and Carboprost Tromethamine prepared therefrom” (CHIROGATE INTERNATIONAL INC., priority 2021, dated 2026).
One block for each molecule: values may come before it.

How the values were obtained:
Format in all cases: physicochemical
[1] = Stability of Carboprost Tromethamine crystal at 80° C. (HPLC purity and impurities)
Excerpt: (§1) The high melting point Carboprost Tromethamine Crystal is very stable at room temperature, even at higher temperature, so that the formation of degradation impurities can be effectively avoided.

[2] = Hygroscopicity: water content by Karl Fischer titration after exposure to 99% RH at 25° C.
Protocol: On the other hand, the hygroscopicity of the high melting point Carboprost Tromethamine crystal prepared from Example 10 (Method A) and the low melting point Carboprost Tromethamine crystal prepared from Example 10 (Method B) was measured. The samples were placed in glass vial with 99% RH at 25° C. for 3 hours, and the water content of the samples were measured by Karl Fischer titration, as shown in Table 6.

[3] = Stability of Carboprost Tromethamine crystal on storage at 25° C./60% RH and 5° C. (HPLC purity and impurities)
Excerpt: as §1

15-epi ([1]; 80° C., 1 days): 0.20% | Purity ([1]; 80° C., 1 days): 99.79% | Total Impurities ([1]; 80° C., 1 days): 0.21% | 15-epi ([1]; 80° C., 3 days): 0.21% | Purity ([1]; 80° C., 3 days): 99.78% | Total Impurities ([1]; 80° C., 3 days): 0.22% | 15-epi ([1]; Control): 0.21% | Purity ([1]; Control): 99.79% | Total Impurities ([1]; Control): 0.21% | Water Content (%) ([2]; 25° C./99% RH/1 h): 1.509% | Water Content (%) ([2]; 25° C./99% RH/2 h): 3.354% | Water Content (%) ([2]; 25° C./99% RH/3 h): 5.881% | Rate of water absorption (in words) ([2]; 99% RH at 25° C. for 3 hours, compared to the low melting point crystal): relatively low rate of water absorption | Water Content (%) ([2]; Original): 0.3657% | 15-epi ([3]; 5° C., 1 month): 0.28% | Purity ([3]; 5° C., 1 month): 99.72% | Total Impurities ([3]; 5° C., 1 month): 0.28% | 15-epi ([3]; 5° C., 12 months): 0.25% | Purity ([3]; 5° C., 12 months): 99.75% | Total Impurities ([3]; 5° C., 12 months): 0.25% | 15-epi ([3]; 5° C., 18 months): 0.25% | Purity ([3]; 5° C., 18 months): 99.75% | Total Impurities ([3]; 5° C., 18 months): 0.25% | 15(R)-epimer ([3]; 25° C./60% RH, 1 month): 0.27% | Purity ([3]; 25° C./60% RH, 1 month): 99.71% | Total Impurities ([3]; 25° C./60% RH, 1 month): 0.29% | 15(R)-epimer ([3]; 25° C./60% RH, 6 months): 0.25% | Purity ([3]; 25° C./60% RH, 6 months): 99.75% | Total Impurities ([3]; 25° C./60% RH, 6 months): 0.25% | 15(R)-epimer ([3]; Control): 0.25% | Purity ([3]; Control): 99.75% | Total Impurities ([3]; Control): 0.25% | Stability (in words) ([3]; at room temperature, even at higher temperature): very stable | Stability (in words) ([3]; treated at 20° C. for 6 months, 5° C. for 18 months, and 80° C. for 3 days): very stable | Stability (in words) ([3]; treated at 20° C. for 6 months, PC for 18 months, and 80° C. for 3 days): stable
Structure (SMILES): CCCCC[C@](C)(O)/C=C/[C@@H]1[C@@H](C/C=C\CCCC(=O)O)[C@@H](O)C[C@H]1O [Example 10 (Method A), 2-amino-2-(hydroxymethyl)propane-1,3-diol; (Z)-7-((1R,2R,3R,5S)-3,5-dihydroxy-2-((S,E)-3-hydroxy-3-methyloct-1-en-1-yl)cyclopentyl)hept-5-enoate]

Water Content (%) ([2]; 25° C./99% RH/1 h): 2.236% | Water Content (%) ([2]; 25° C./99% RH/2 h): 5.45% | Water Content (%) ([2]; 25° C./99% RH/3 h): 7.513% | Water Content (%) ([2]; Original): 0.3303%
Structure (SMILES): CCCCC[C@](C)(O)/C=C/[C@@H]1[C@@H](C/C=C\CCCC(=O)O)[C@@H](O)C[C@H]1O [Example 10 (Method B), 2-amino-2-(hydroxymethyl)propane-1,3-diol; (Z)-7-((1R,2R,3R,5S)-3,5-dihydroxy-2-((S,E)-3-hydroxy-3-methyloct-1-en-1-yl)cyclopentyl)hept-5-enoate, reference compound]
